From ChEMBL document CHEMBL1201862, “PubChem BioAssay data set” (2004)
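Interpolation was linear, between the two tested concentrations surrounding the appropriate level; five concentrations were tested over 48 hours in 96-well plates. GI50 = concentration required for 50% inhibition of growth.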 The source made the active and inactive calls. No stated cut-off is given here; in the data, active = GI50 up to about 1.1 µM and inactive = higher.

How the values were obtained:
Experiment in all cases: DTP human tumour cell line panel, 48 h
HT-29 = test system: HT-29
NCI-H522 = test system: NCI-H522
EKVX = test system: EKVX
SK-MEL-2 = test system: SK-MEL-2
ACHN = test system: ACHN
MDA-N = test system: MDA-N
Malme-3M = test system: Malme-3M
M14 = test system: M14
RPMI-8226 = test system: RPMI-8226
IGROV-1 = test system: IGROV-1
SW-620 = test system: SW-620
SN12C = test system: SN12C
OVCAR-3 = test system: OVCAR-3
RXF 393 = test system: RXF 393
SNB-19 = test system: SNB-19
HCT-116 = test system: HCT-116
786-0 = test system: 786-0
HCT-15 = test system: HCT-15
SF-295 = test system: SF-295
DU-145 = test system: DU-145
SK-MEL-28 = test system: SK-MEL-28
OVCAR-5 = test system: OVCAR-5
HOP-62 = test system: HOP-62
MDA-MB-435 = test system: MDA-MB-435
MOLT-4 = test system: MOLT-4
HOP-92 = test system: HOP-92
SNB-75 = test system: SNB-75
Hs-578T = test system: Hs-578T
HL-60 = test system: HL-60
SK-OV-3 = test system: SK-OV-3
CCRF-CEM = test system: CCRF-CEM
OVCAR-4 = test system: OVCAR-4
UACC-62 = test system: UACC-62
LOX IMVI = test system: LOX IMVI
MDA-MB-231 = test system: MDA-MB-231
SF-268 = test system: SF-268
UACC-257 = test system: UACC-257
T47D = test system: T47D
KM12 = test system: KM12
NCI-H460 = test system: NCI-H460
NCI/ADR-RES = test system: NCI/ADR-RES
SR = test system: SR
SK-MEL-5 = test system: SK-MEL-5
COLO 205 = test system: COLO 205
A549 = test system: A549
SF-539 = test system: SF-539
MCF7 = test system: MCF7
PC-3 = test system: PC-3
HCC 2998 = test system: HCC 2998
K562 = test system: K562
TK-10 = test system: TK-10
UO-31 = test system: UO-31
NCI-H226 = test system: NCI-H226
NCI-H23 = test system: NCI-H23
BT-549 = test system: BT-549
OVCAR-8 = test system: OVCAR-8
U-251 = test system: U-251

Measured: GI50

CC(=O)N(C)SCC(NC(=O)C(Cc1ccccc1)NC(=O)OCc1ccccc1)C(=O)NC(Cc1ccccc1)C(=O)NC(Cc1cn(C=O)c2ccccc12)C(=O)NC(CCCCNC(=O)OCc1ccccc1)C(=O)NC(C(=O)NC(CSN(C)C(C)=O)C(=O)NO)C(C)OCc1ccccc1 (configuration not stated)
> 100 µM: HCT-15
inactive: HT-29 > 100 µM | NCI-H522 > 100 µM | EKVX > 100 µM | SK-MEL-2 > 100 µM | ACHN > 100 µM | MDA-N > 100 µM | Malme-3M > 100 µM | M14 > 100 µM | RPMI-8226 > 100 µM | IGROV-1 > 100 µM | SW-620 > 100 µM | SN12C > 100 µM | OVCAR-3 > 100 µM | RXF 393 > 100 µM | SNB-19 > 100 µM | HCT-116 > 100 µM | 786-0 > 100 µM | SF-295 > 100 µM | DU-145 > 100 µM | SK-MEL-28 > 100 µM | OVCAR-5 > 100 µM | HOP-62 > 100 µM | MDA-MB-435 > 100 µM | MOLT-4 > 100 µM | HOP-92 > 100 µM | SNB-75 > 100 µM | Hs-578T > 100 µM | HL-60 > 100 µM | SK-OV-3 > 100 µM | CCRF-CEM > 100 µM | OVCAR-4 > 100 µM | UACC-62 > 100 µM | LOX IMVI > 100 µM | MDA-MB-231 > 100 µM | SF-268 > 100 µM | UACC-257 > 100 µM | T47D > 100 µM | KM12 > 100 µM | NCI-H460 > 100 µM | NCI/ADR-RES > 100 µM | SR > 100 µM | SK-MEL-5 > 100 µM | COLO 205 > 100 µM | A549 > 100 µM | SF-539 > 100 µM | MCF7 > 100 µM | PC-3 > 100 µM | HCC 2998 > 100 µM | K562 > 100 µM | TK-10 > 100 µM | UO-31 > 100 µM | NCI-H226 > 100 µM | NCI-H23 > 100 µM | BT-549 > 100 µM | OVCAR-8 > 100 µM | U-251 > 100 µM
